# Assay results as given in patent EP0198522A1, “Heterocyclic herbicides” (SHELL INTERNATIONALE RESEARCH MAATSCHAPPIJ B.V., priority 1985, dated 1986).
# What was measured:
# Type in all cases: in vivo
# oat, Avena sativa [1] = assay: Herbicidal activity, post-emergence foliar spray test; settings: assessed visually twelve days after spraying, 0-9 scale, 0 = growth as untreated control, 9 = death
# Experimental: (§1) To evaluate their herbicidal activity, compounds according to the invention were tested using as representative range of plants: maize, Zea mays (Mz); rice, Oryza sativa (R); barnyard grass, Echinochloa crusgalli (BG); oat, Avena sativa (0); linseed, Linum usitatissisum (L); mustard, Sinapsis alba (M); sugar beet, Beta vulgaris (SB) and soya bean, Glycine max (S).
# (§2) The tests fall into two categories, pre-emergence and post-emergence. […] The post-emergence tests involved two types of test, viz., soil drench and foliar spray tests. In the soil drench tests the soil in which the seedling plants of the above species were growing was drenched with a liquid formulation containing a compound of the invention, and in the foliar spray tests the seedling plants were sprayed with such a formulation.
# (§3) The soil used in the tests was a prepared horticultural loam.
# (§4) These acetone solutions were diluted with water and the resulting formulations applied at dosage levels corresponding to 5 kg or 1 kg of active material per hectare in a volume equivalent to 600 litres per hectare in the soil spray and foliar spray test, and at a dosage of level equivalent to 10 kilograms of active material per hectare in a volume equivalent to approximately 3,000 litres per hectare in the soil drench tests.
# (§5) In the pre-emexgence tests untreated sown soil and in the post-emergence tests untreated soil bearing seedling plants were used as controls.
# (§6) The herbicidal effects of the test compounds were assessed visually twelve days after spraying the foliage and the soil, and thirteen days after drenching the soil and were recorded on a 0-9 scale. A rating 0 indicates growth as untreated control, a rating 9 indicates death. An increase of 1 unit on the linear scale approximates to a 10% increase in the level of effect.
# mustard, Sinapsis alba [2] = assay: as above; settings: assessed visually twelve days after spraying, 0-9 scale, 0 = growth as untreated control, 9 = death
# Experimental: as §1, §2, §3, §4, §5, §6
# [3] = test system: linseed, Linum usitatissisum; assay: as above; settings: assessed visually twelve days after spraying, 0-9 scale, 0 = growth as untreated control, 9 = death
# Experimental: as §1, §2, §3, §4, §5, §6
# [4] = test system: barnyard grass, Echinochloa crusgalli; assay: as above; settings: assessed visually twelve days after spraying, 0-9 scale, 0 = growth as untreated control, 9 = death
# Experimental: as §1, §2, §3, §4, §5, §6
# maize, Zea mays [5] = assay: as above; settings: assessed visually twelve days after spraying, 0-9 scale, 0 = growth as untreated control, 9 = death
# Experimental: as §1, §2, §3, §4, §5, §6
# [6] = test system: sugar beet, Beta vulgaris; assay: as above; settings: assessed visually twelve days after spraying, 0-9 scale, 0 = growth as untreated control, 9 = death
# Experimental: as §1, §2, §3, §4, §5, §6
# rice, Oryza sativa [7] = assay: as above; settings: assessed visually twelve days after spraying, 0-9 scale, 0 = growth as untreated control, 9 = death
# Experimental: as §1, §2, §3, §4, §5, §6
# soya bean, Glycine max [8] = assay: as above; settings: assessed visually twelve days after spraying, 0-9 scale, 0 = growth as untreated control, 9 = death
# Experimental: as §1, §2, §3, §4, §5, §6
# oat, Avena sativa [9] = assay: Herbicidal activity, pre-emergence test (soil spray); settings: assessed visually twelve days after spraying, 0-9 scale, 0 = growth as untreated control, 9 = death
# Experimental: as §1, §2, §3, §4, §5, §6
# mustard, Sinapsis alba [10] = assay: as above; settings: assessed visually twelve days after spraying, 0-9 scale, 0 = growth as untreated control, 9 = death
# Experimental: as §1, §2, §3, §4, §5, §6
# [11] = test system: linseed, Linum usitatissisum; assay: as above; settings: assessed visually twelve days after spraying, 0-9 scale, 0 = growth as untreated control, 9 = death
# Experimental: as §1, §2, §3, §4, §5, §6
# [12] = test system: barnyard grass, Echinochloa crusgalli; assay: as above; settings: assessed visually twelve days after spraying, 0-9 scale, 0 = growth as untreated control, 9 = death
# Experimental: as §1, §2, §3, §4, §5, §6
# maize, Zea mays [13] = assay: as above; settings: assessed visually twelve days after spraying, 0-9 scale, 0 = growth as untreated control, 9 = death
# Experimental: as §1, §2, §3, §4, §5, §6
# [14] = test system: sugar beet, Beta vulgaris; assay: as above; settings: assessed visually twelve days after spraying, 0-9 scale, 0 = growth as untreated control, 9 = death
# Experimental: as §1, §2, §3, §4, §5, §6
# rice, Oryza sativa [15] = assay: as above; settings: assessed visually twelve days after spraying, 0-9 scale, 0 = growth as untreated control, 9 = death
# Experimental: as §1, §2, §3, §4, §5, §6
# soya bean, Glycine max [16] = assay: as above; settings: assessed visually twelve days after spraying, 0-9 scale, 0 = growth as untreated control, 9 = death
# Experimental: as §1, §2, §3, §4, §5, §6
# oat, Avena sativa [17] = assay: Herbicidal activity, post-emergence soil drench test; settings: 10 kg/ha soil drench; assessed visually thirteen days after drenching; 0-9 scale, 0 = growth as untreated control, 9 = death
# Experimental: as §1, §2, §3, §4, §5, §6
# mustard, Sinapsis alba [18] = assay: as above; settings: 10 kg/ha soil drench; assessed visually thirteen days after drenching; 0-9 scale, 0 = growth as untreated control, 9 = death
# Experimental: as §1, §2, §3, §4, §5, §6
# [19] = test system: linseed, Linum usitatissisum; assay: as above; settings: 10 kg/ha soil drench; assessed visually thirteen days after drenching; 0-9 scale, 0 = growth as untreated control, 9 = death
# Experimental: as §1, §2, §3, §4, §5, §6
# [20] = test system: barnyard grass, Echinochloa crusgalli; assay: as above; settings: 10 kg/ha soil drench; assessed visually thirteen days after drenching; 0-9 scale, 0 = growth as untreated control, 9 = death
# Experimental: as §1, §2, §3, §4, §5, §6
# maize, Zea mays [21] = assay: as above; settings: 10 kg/ha soil drench; assessed visually thirteen days after drenching; 0-9 scale, 0 = growth as untreated control, 9 = death
# Experimental: as §1, §2, §3, §4, §5, §6
# [22] = test system: sugar beet, Beta vulgaris; assay: as above; settings: 10 kg/ha soil drench; assessed visually thirteen days after drenching; 0-9 scale, 0 = growth as untreated control, 9 = death
# Experimental: as §1, §2, §3, §4, §5, §6
# rice, Oryza sativa [23] = assay: as above; settings: 10 kg/ha soil drench; assessed visually thirteen days after drenching; 0-9 scale, 0 = growth as untreated control, 9 = death
# Experimental: as §1, §2, §3, §4, §5, §6
# soya bean, Glycine max [24] = assay: as above; settings: 10 kg/ha soil drench; assessed visually thirteen days after drenching; 0-9 scale, 0 = growth as untreated control, 9 = death
# Experimental: as §1, §2, §3, §4, §5, §6
compound,measurement,setting,value
"CC(C)C1(C)NC(c2nc3cc4c(cc3cc2C(=O)[O-])OCO4)=NC1=O.[Na+] (stereo not shown) [Example 4, Sodivmt-2-(5-isopropyl-5-methyl-4-oxo-2-imidazolin-2-yl)-[1,3]-dioxolo[4,5-g] quinoline-3-carboxylic acid (salt)]",Foliar spray O (herbicidal effect rating),"oat, Avena sativa [1]; Dosage 1 kg/ha",4
same,Foliar spray O (herbicidal effect rating),"oat, Avena sativa [1]; Dosage 5 kg/ha",4
same,Foliar spray M (herbicidal effect rating),"mustard, Sinapsis alba [2]; Dosage 1 kg/ha",8
same,Foliar spray M (herbicidal effect rating),"mustard, Sinapsis alba [2]; Dosage 5 kg/ha",8
same,Foliar spray L (herbicidal effect rating),[3]; Dosage 1 kg/ha,6
same,Foliar spray L (herbicidal effect rating),[3]; Dosage 5 kg/ha,6
same,Foliar spray BG (herbicidal effect rating),[4]; Dosage 1 kg/ha,7
same,Foliar spray BG (herbicidal effect rating),[4]; Dosage 5 kg/ha,8
same,Foliar spray Mz (herbicidal effect rating),"maize, Zea mays [5]; Dosage 1 kg/ha",4
same,Foliar spray Mz (herbicidal effect rating),"maize, Zea mays [5]; Dosage 5 kg/ha",6
same,Foliar spray SB (herbicidal effect rating),[6]; Dosage 1 kg/ha,7
same,Foliar spray SB (herbicidal effect rating),[6]; Dosage 5 kg/ha,8
same,Foliar spray R (herbicidal effect rating),"rice, Oryza sativa [7]; Dosage 1 kg/ha",4
same,Foliar spray R (herbicidal effect rating),"rice, Oryza sativa [7]; Dosage 5 kg/ha",4
same,Foliar spray S (herbicidal effect rating),"soya bean, Glycine max [8]; Dosage 1 kg/ha",2
same,Foliar spray S (herbicidal effect rating),"soya bean, Glycine max [8]; Dosage 5 kg/ha",3
same,Pre-emergence O (herbicidal effect rating),"oat, Avena sativa [9]; Dosage 1 kg/ha",5
same,Pre-emergence O (herbicidal effect rating),"oat, Avena sativa [9]; Dosage 5 kg/ha",6
same,Pre-emergence M (herbicidal effect rating),"mustard, Sinapsis alba [10]; Dosage 1 kg/ha",7
same,Pre-emergence M (herbicidal effect rating),"mustard, Sinapsis alba [10]; Dosage 5 kg/ha",7
same,Pre-emergence L (herbicidal effect rating),[11]; Dosage 1 kg/ha,8
same,Pre-emergence L (herbicidal effect rating),[11]; Dosage 5 kg/ha,9
same,Pre-emergence BG (herbicidal effect rating),[12]; Dosage 1 kg/ha,8
same,Pre-emergence BG (herbicidal effect rating),[12]; Dosage 5 kg/ha,8
same,Pre-emergence Mz (herbicidal effect rating),"maize, Zea mays [13]; Dosage 1 kg/ha",8
same,Pre-emergence Mz (herbicidal effect rating),"maize, Zea mays [13]; Dosage 5 kg/ha",8
same,Pre-emergence SB (herbicidal effect rating),[14]; Dosage 1 kg/ha,8
same,Pre-emergence SB (herbicidal effect rating),[14]; Dosage 5 kg/ha,8
same,Pre-emergence R (herbicidal effect rating),"rice, Oryza sativa [15]; Dosage 1 kg/ha",8
same,Pre-emergence R (herbicidal effect rating),"rice, Oryza sativa [15]; Dosage 5 kg/ha",9
same,Pre-emergence S (herbicidal effect rating),"soya bean, Glycine max [16]; Dosage 1 kg/ha",2
same,Pre-emergence S (herbicidal effect rating),"soya bean, Glycine max [16]; Dosage 5 kg/ha",5
same,Soil drench 10/kg/ha O (herbicidal effect rating),"oat, Avena sativa [17]",4
same,Soil drench 10/kg/ha M (herbicidal effect rating),"mustard, Sinapsis alba [18]",8
same,Soil drench 10/kg/ha L (herbicidal effect rating),[19],6
same,Soil drench 10/kg/ha BG (herbicidal effect rating),[20],8
same,Soil drench 10/kg/ha Mz (herbicidal effect rating),"maize, Zea mays [21]",5
same,Soil drench 10/kg/ha SB (herbicidal effect rating),[22],8
same,Soil drench 10/kg/ha R (herbicidal effect rating),"rice, Oryza sativa [23]",5
same,Soil drench 10/kg/ha S (herbicidal effect rating),"soya bean, Glycine max [24]",6
